Results from ChEMBL document CHEMBL5247607, “Design, synthesis and biological evaluation of a new series of arylidene indanones as small molecules for targeted therapy of non-small cell lung carcinoma and prostate cancer” (Eur J Med Chem, 2022).
Each block holds one compound with its values, some of them ahead of it. Active and inactive are the calls of the source. The rule behind the calls is not given here.

Columns and labels:
A549 [1] = experiment: Cytotoxicity against human A549 cells assessed as inhibition of cell growth incubated for 24 hrs by MTT assay; type: functional, cell-based; settings: A549, 24 h
[2] = Cytotoxicity against human CCD 19Lu cells assessed as inhibition of cell growth incubated for 24 hrs by MTT assay; type: toxicity, cell-based
[3] = biological target: Procathepsin L (Homo sapiens) (UniProt P07711); experiment: Inhibition of cathepsin L (unknown origin) at 100 uM
Chain of Procathepsin L (Homo sapiens) (P07711 114-333 limits assumed): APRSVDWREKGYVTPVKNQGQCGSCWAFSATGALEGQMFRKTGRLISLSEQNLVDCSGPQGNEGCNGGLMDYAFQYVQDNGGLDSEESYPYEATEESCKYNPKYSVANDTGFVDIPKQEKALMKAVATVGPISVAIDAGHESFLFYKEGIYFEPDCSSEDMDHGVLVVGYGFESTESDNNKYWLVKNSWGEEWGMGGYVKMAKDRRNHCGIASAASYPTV

[4] = Selectivity index, ratio of IC50 for cytotoxicity against human hTERT-HPNE cells to IC50 for cytotoxicity against human PANC-1 cells; type: toxicity, cell-based; settings: hTERT-HPNE cells versus PANC-1 cells, read-out: Ratio IC50
[5] = Cytotoxicity against human hTERT-HPNE cells assessed as inhibition of cell growth incubated for 24 hrs by MTT assay; type: toxicity, cell-based
[6] = biological target: Cathepsin D (Homo sapiens) (UniProt P07339); experiment: Inhibition of cathepsin D (unknown origin) at 100 uM relative to control
Chain of Cathepsin D (Homo sapiens) (P07339 65-162 limits assumed): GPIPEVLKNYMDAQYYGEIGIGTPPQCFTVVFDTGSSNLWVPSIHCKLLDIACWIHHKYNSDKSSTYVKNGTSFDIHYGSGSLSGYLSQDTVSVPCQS
Chain of Cathepsin D (Homo sapiens) (P07339 169-412 limits assumed): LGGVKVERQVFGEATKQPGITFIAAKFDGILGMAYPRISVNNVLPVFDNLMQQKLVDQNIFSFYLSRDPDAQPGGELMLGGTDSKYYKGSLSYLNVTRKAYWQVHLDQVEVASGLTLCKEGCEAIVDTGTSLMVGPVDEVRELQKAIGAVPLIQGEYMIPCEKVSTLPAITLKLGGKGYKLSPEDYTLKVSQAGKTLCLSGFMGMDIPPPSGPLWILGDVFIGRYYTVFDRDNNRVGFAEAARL

PANC-1 [7] = experiment: Cytotoxicity against human PANC-1 cells assessed as inhibition of cell growth incubated for 24 hrs by MTT assay; type: functional, cell-based; settings: PANC-1, 24 h
[8] = biological target: Cathepsin D (Homo sapiens) (UniProt P07339); experiment: Inhibition of cathepsin D (unknown origin) at 100 uM
[9] = Selectivity index, ratio of IC50 for cytotoxicity against human CCD 19Lu cells to IC50 for cytotoxicity against human A549 cells; type: toxicity, cell-based; settings: CCD 19Lu cells versus A549 cells, read-out: Ratio IC50
PANC-1 [10] = experiment: Induction of mitochondrial membrane potential loss in human PANC-1 cells assessed as polarized cells at IC50 incubated for 24 hrs by JC-1 staining based flow cytometry assay (reference value: 92%); type: functional
PANC-1 [11] = experiment: Induction of apoptosis in human PANC-1 cells assessed as early apoptotic cells at IC50 incubated for 24 hrs by annexin V-FITC/PI staining based flow cytometry analysis (reference value: 0%); type: functional
A549 [12] = experiment: Induction of morphological changes in human A549 cells assessed as chromatin condensation at 5.96 uM incubated for 24 hrs by acridine orange/ethidium bromide staining based fluorescence microscopic analysis; type: functional, cell-based
A549 [13] = experiment: Induction of morphological changes in human A549 cells assessed as cell shrinkage at 5.96 uM incubated for 24 hrs by acridine orange/ethidium bromide staining based fluorescence microscopic analysis; type: functional
PANC-1 [14] = experiment: Induction of apoptosis in human PANC-1 cells assessed as activation of caspase-3 by measuring caspase-3 positive cells at IC50 incubated for 24 hrs by flow cytometry analysis (reference value: 1.8%); type: functional
PANC-1 [15] = experiment: Induction of apoptosis in human PANC-1 cells assessed as late apoptotic cells at IC50 incubated for 24 hrs by annexin V-FITC/PI staining based flow cytometry analysis (reference value: 0.2%); type: functional
PANC-1 [16] = experiment: Inhibition of DNA synthesis in human PANC-1 cells at 5.96 uM incubated for 24 hrs by BrdU incorporation assay relative to control; type: functional
PANC-1 [17] = experiment: Induction of apoptosis in human PANC-1 cells assessed as total cell viability at IC50 incubated for 24 hrs by annexin V-FITC/PI staining based flow cytometry analysis (reference value: 84.4%); type: functional
A549 [18] = experiment: Induction of apoptosis in human A549 cells assessed as total cell viability at IC50 incubated for 24 hrs by annexin V-FITC/PI staining based flow cytometry analysis (reference value: 85.6 %); type: functional
A549 [19] = experiment: Induction of apoptosis in human A549 cells assessed as increase in intracellular calcium level at 5.96 uM by Fluo-4-AM staining based flow cytometry analysis; type: functional, cell-based
A549 [20] = experiment: Induction of apoptosis in human A549 cells assessed as late apoptotic cells at IC50 incubated for 24 hrs by annexin V-FITC/PI staining based flow cytometry analysis (reference value: 6.5 %); type: functional
A549 [21] = experiment: Induction of mitochondrial membrane potential loss in human A549 cells assessed as depolarized cells at IC50 incubated for 24 hrs by JC-1 staining based flow cytometry assay (reference value: 6.9%); type: functional
A549 [22] = experiment: Induction of morphological changes in human A549 cells assessed as formation of apoptotic bodies at 5.96 uM incubated for 24 hrs by acridine orange/ethidium bromide staining based fluorescence microscopic analysis; type: functional, cell-based
A549 [23] = experiment: Inhibition of DNA synthesis in human A549 cells at 2.98 uM incubated for 24 hrs by BrdU incorporation assay relative to control; type: functional
A549 [24] = experiment: Induction of apoptosis in human A549 cells assessed as early apoptotic cells at IC50 incubated for 24 hrs by annexin V-FITC/PI staining based flow cytometry analysis (reference value: 5.6%); type: functional
PANC-1 [25] = experiment: Induction of morphological changes in human PANC-1 cells assessed as chromatin condensation at 5.96 uM incubated for 24 hrs by acridine orange/ethidium bromide staining based fluorescence microscopic analysis; type: functional, cell-based
PANC-1 [26] = experiment: Induction of morphological changes in human PANC-1 cells assessed as formation of apoptotic bodies at 5.96 uM incubated for 24 hrs by acridine orange/ethidium bromide staining based fluorescence microscopic analysis; type: functional, cell-based
A549 [27] = experiment: Induction of apoptosis in human A549 cells assessed as activation of caspase-3 by measuring caspase-3 negative cells at IC50 incubated for 24 hrs by flow cytometry analysis (reference value: 91.1%); type: functional
A549 [28] = experiment: Induction of mitochondrial membrane potential loss in human A549 cells assessed as polarized cells at IC50 incubated for 24 hrs by JC-1 staining based flow cytometry assay (reference value: 90.6%); type: functional
A549 [29] = experiment: Induction of apoptosis in human A549 cells assessed as activation of caspase-3 by measuring caspase-3 positive cells at IC50 incubated for 24 hrs by flow cytometry analysis (reference value: 8.4%); type: functional
A549 [30] = experiment: Inhibition of DNA synthesis in human A549 cells at 5.96 uM incubated for 24 hrs by BrdU incorporation assay relative to control; type: functional
PANC-1 [31] = experiment: Induction of morphological changes in human PANC-1 cells assessed as cell shrinkage at 5.96 uM incubated for 24 hrs by acridine orange/ethidium bromide staining based fluorescence microscopic analysis; type: functional
PANC-1 [32] = experiment: Induction of mitochondrial membrane potential loss in human PANC-1 cells assessed as depolarized cells at IC50 incubated for 24 hrs by JC-1 staining based flow cytometry assay (reference value: 5%); type: functional
PANC-1 [33] = experiment: Induction of apoptosis in human PANC-1 cells assessed as activation of caspase-3 by measuring caspase-3 negative cells at IC50 incubated for 24 hrs by flow cytometry analysis (reference value: 98.5 %); type: functional
A549 [34] = experiment: Inhibition of DNA synthesis in human A549 cells at 1.49 uM incubated for 24 hrs by BrdU incorporation assay relative to control; type: functional

- inhibition [3]: inactive
- inhibition [6]: 39.1%
Compound: O=C1/C(=C/c2ccc(N3CCCCC3)cc2)Cc2cc3c(cc21)OCO3
- IC50 (A549 [1]): 16.3 µM
- IC50 at 24 h [2]: < 11.2 µM
- selectivity ratio [4]: 3.28
- IC50 at 24 h [5]: 1180 µM
- IC50 (PANC-1 [7]): 360 µM

- inhibition [8]: inactive
- inhibition [3]: inactive
Compound: CC(=O)Nc1ccc(/C=C2\Cc3cc4c(cc3C2=O)OCO4)cc1
- IC50 (A549 [1]): 115 µM
- IC50 at 24 h [2]: > 1560 µM
- IC50 at 24 h [5]: 57 µM
- selectivity ratio [9]: > 13.5
- IC50 (PANC-1 [7]): 160 µM

- inhibition [3]: inactive
- inhibition [6]: 34.9%
Compound: O=C1/C(=C/c2ccc(N3CCOCC3)cc2)Cc2cc3c(cc21)OCO3
- IC50 (A549 [1]): 55.8 µM
- IC50 at 24 h [2]: > 1430 µM
- selectivity ratio [4]: 5.52
- IC50 at 24 h [5]: 1210 µM
- selectivity ratio [9]: > 25.6
- IC50 (PANC-1 [7]): 219 µM

- inhibition [3]: inactive
- inhibition [6]: 30.4%
Compound: CCN(CC)c1ccc(/C=C2\Cc3cc4c(cc3C2=O)OCO4)cc1
- Activity (PANC-1 [10]): 29.7%
- IC50 (A549 [1]): < 11.6 µM
- IC50 at 24 h [2]: > 1490 µM
- Activity (PANC-1 [11]): 3.5%
- Activity (A549 [12]): Active
- Activity (A549 [13]): Active
- Activity (PANC-1 [14]): 3.1%
- Activity (PANC-1 [15]): 1.5%
- inhibition at 5.96 µM (PANC-1 [16]): 23.6%
- Activity (PANC-1 [17]): 90.9%
- Activity (A549 [18]): 38.8%
- Activity (A549 [19]): Active
- selectivity ratio [4]: > 128
- Activity (A549 [20]): 27%
- Activity (A549 [21]): 66.8%
- IC50 at 24 h [5]: > 1490 µM
- Activity (A549 [22]): Active
- selectivity ratio [9]: > 128
- inhibition at 2.98 µM (A549 [23]): 24.2%
- Activity (A549 [24]): 26.7%
- Activity (PANC-1 [25]): Active
- Activity (PANC-1 [26]): Active
- Activity (A549 [27]): 96.1%
- Activity (A549 [28]): 65.1%
- Activity (A549 [29]): 3.9%
- inhibition at 5.96 µM (A549 [30]): 39.6%
- Activity (PANC-1 [31]): Active
- IC50 (PANC-1 [7]): < 11.6 µM
- Activity (PANC-1 [32]): 68.4%
- Activity (PANC-1 [33]): 97.6%
- inhibition at 1.49 µM (A549 [34]): 22.1%
